The values that follow are results of earlier work, collected in patent US6444675B2, “4-alkyl and 4-cycloalkyl derivatives of dihydropyridine NPY antagonists” (Bristol-Myers Squibb Company, priority 2000, dated 2002).

Data set [1] deals with NPY-related increases in diastolic blood pressure. Conditions: anesthetized guinea pig model.
Data set [2] addresses T1, I-125 labeled NPY and PYY in human neuroblastoma cells (Homo sapiens, UniProt P25929).
T1 construct: displacing I-125 labeled NPY and PYY in human neuroblastoma cells; endogenous receptor
T1 sequence (P25929 1-384): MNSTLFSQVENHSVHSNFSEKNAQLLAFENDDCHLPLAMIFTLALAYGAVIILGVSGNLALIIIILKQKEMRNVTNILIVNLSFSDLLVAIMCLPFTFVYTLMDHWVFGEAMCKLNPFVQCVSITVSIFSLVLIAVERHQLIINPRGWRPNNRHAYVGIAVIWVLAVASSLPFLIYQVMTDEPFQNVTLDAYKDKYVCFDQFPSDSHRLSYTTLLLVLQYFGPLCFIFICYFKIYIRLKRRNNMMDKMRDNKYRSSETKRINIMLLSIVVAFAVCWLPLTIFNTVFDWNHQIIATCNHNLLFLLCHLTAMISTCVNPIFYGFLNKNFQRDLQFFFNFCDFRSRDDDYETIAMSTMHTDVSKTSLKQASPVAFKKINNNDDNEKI

Data set [3] relates to NPY-induced pressor response. As to conditions: pithed rat.
Data set [4] has as its target T2, I-125 Bolton-Hunter labeled NPY in human neuroblastoma cells (SK-N-MC) (Homo sapiens, UniProt P25929).
T2 construct: displaces I-125 Bolton-Hunter labeled NPY in human neuroblastoma cells (SK-N-MC); host or cells: SK-N-MC human neuroblastoma cells (endogenous receptor)
T2 sequence (P25929 1-384): T1 sequence (P25929 1-384)

For data set [5], the system named is NPY-induced increase in intracellular Ca++ in SK-N-MC cells.
For data set [6], the system named is NPY-induced contractions in guinea pig basilar artery.

For the compound `CN(C)CC1CCC(CN=C(N)c2ccc(C[C@@H](NC(=O)[C@@H](Cc3ccccc3)NS(=O)(=O)c3ccc4ccccc4c3)C(=O)N3CCCC3)cc2)CC1` (stereo partly drawn) [SR 120819A], the “antagonism of NPY-related increases in diastolic blood pressure” value in data set [1] is reported as “antagonized”. Also, the “displacement of I-125 labeled NPY and PYY” value in data set [2] was “displacing”.

Regarding `NC(N)=NCCC[C@@H](NC(=O)C(c1ccccc1)c1ccccc1)C(=O)NCc1ccc(O)cc1` [BIBP 3226], in data set [3], the “antagonism of NPY-induced pressor response” value is given as “antagonizing”. Further, in data set [4], the “displacement of I-125 Bolton-Hunter labeled NPY” value is “displaces”. The “antagonism of NPY-induced increase in intracellular Ca++” value in data set [5] was “antagonized”.

With `O=P(O)(O)OC1[C@H](OP(=O)(O)O)[C@H](O)C(O)[C@H](O)[C@H]1OP(=O)(O)O` (stereo partly drawn) [D-Myo-inositol-1,2,6-triphosphate], the “antagonism of NPY-induced contractions” value in data set [6] is “potent but non-competitive antagonist”.
